Test system: SEM cells
Assay: cell viability relative to DMSO control; higher = less cytotoxic
Conditions: 48 h
In short: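 Three leukemia lines were tested: NOMO1 and SEM at 500 cells/well and P12-Ichikawa at 1000 cells/well. Each was adapted for at least four passages in each medium and seeded in 5 μl in 1536-well plates, and library compounds in DMSO were pin-dosed from 47 μM to 0.79 nM in 11 threefold steps. After 48 h at 37°C, CellTiter-Glo One luminescence was read. Viability is a percentage relative to DMSO wells on each plate, with cell-free wells as background.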

[1] = HPLM + 10% dialyzed FBS, 0.000781 µM
[2] = HPLM + 10% dialyzed FBS, 0.00234 µM
[3] = HPLM + 10% dialyzed FBS, 0.00702 µM
[4] = HPLM + 10% dialyzed FBS, 0.0211 µM
[5] = HPLM + 10% dialyzed FBS, 0.0632 µM
[6] = HPLM + 10% dialyzed FBS, 0.19 µM
[7] = HPLM + 10% dialyzed FBS, 0.569 µM
[8] = HPLM + 10% dialyzed FBS, 1.71 µM
[9] = HPLM + 10% dialyzed FBS, 5.12 µM
[10] = HPLM + 10% dialyzed FBS, 15.4 µM
[11] = HPLM + 10% dialyzed FBS, 46.1 µM
[12] = RPMI 5 mM glucose + 10% FBS, 0.000781 µM
[13] = RPMI 5 mM glucose + 10% FBS, 0.00234 µM
[14] = RPMI 5 mM glucose + 10% FBS, 0.00702 µM
[15] = RPMI 5 mM glucose + 10% FBS, 0.0211 µM
[16] = RPMI 5 mM glucose + 10% FBS, 0.0632 µM
[17] = RPMI 5 mM glucose + 10% FBS, 0.19 µM
[18] = RPMI 5 mM glucose + 10% FBS, 0.569 µM
[19] = RPMI 5 mM glucose + 10% FBS, 1.71 µM
[20] = RPMI 5 mM glucose + 10% FBS, 5.12 µM
[21] = RPMI 5 mM glucose + 10% FBS, 15.4 µM
[22] = RPMI 5 mM glucose + 10% FBS, 46.1 µM
[23] = RPMI 5 mM glucose + 10% dialyzed FBS, 0.000781 µM
[24] = RPMI 5 mM glucose + 10% dialyzed FBS, 0.00234 µM
[25] = RPMI 5 mM glucose + 10% dialyzed FBS, 0.00702 µM
[26] = RPMI 5 mM glucose + 10% dialyzed FBS, 0.0211 µM
[27] = RPMI 5 mM glucose + 10% dialyzed FBS, 0.0632 µM
[28] = RPMI 5 mM glucose + 10% dialyzed FBS, 0.19 µM
[29] = RPMI 5 mM glucose + 10% dialyzed FBS, 0.569 µM
[30] = RPMI 5 mM glucose + 10% dialyzed FBS, 1.71 µM
[31] = RPMI 5 mM glucose + 10% dialyzed FBS, 5.12 µM
[32] = RPMI 5 mM glucose + 10% dialyzed FBS, 15.4 µM
[33] = RPMI 5 mM glucose + 10% dialyzed FBS, 46.1 µM

Row | SMILES | cell viability [1] [%] | cell viability [2] [%] | cell viability [3] [%] | cell viability [4] [%] | cell viability [5] [%] | cell viability [6] [%] | cell viability [7] [%] | cell viability [8] [%] | cell viability [9] [%] | cell viability [10] [%] | cell viability [11] [%] | cell viability [12] [%] | cell viability [13] [%] | cell viability [14] [%] | cell viability [15] [%] | cell viability [16] [%] | cell viability [17] [%] | cell viability [18] [%] | cell viability [19] [%] | cell viability [20] [%] | cell viability [21] [%] | cell viability [22] [%] | cell viability [23] [%] | cell viability [24] [%] | cell viability [25] [%] | cell viability [26] [%] | cell viability [27] [%] | cell viability [28] [%] | cell viability [29] [%] | cell viability [30] [%] | cell viability [31] [%] | cell viability [32] [%] | cell viability [33] [%]
1 | CCc1cccc2c3c([nH]c12)C(CC)(CC(=O)O)OCC3 (stereo not given) | 105 | 90.9 | 105 | 112 | 101 | 120 | 114 | 108 | 103 | 47.2 | 103 | 83.6 | 37.6 | 85.4 | 96.2 | 98 | 87.6 | 105 | 102 | 105 | 40.7 | 91.9 | 94.2 | 93 | 102 | 107 | 112 | 103 | 102 | 110 | 105 | 34.7 | 89.4
2 | CC(=O)Oc1cc2c(s1)CCN(C(C(=O)C1CC1)c1ccccc1F)C2.Cl (stereo not given) | 84.3 | 102 | 103 | 113 | 115 | 112 | 110 | 122 | 120 | 101 | 68.5 | 71.3 | 96.9 | 88.7 | 96.7 | 90.8 | 101 | 94.2 | 100 | 101 | 82.1 | 53.3 | 76.1 | 106 | 103 | 111 | 107 | 114 | 110 | 117 | 115 | 78.6 | 54.4
3 | N#CC1(c2ccc(NC(=O)c3cccnc3NCc3ccncc3)cc2)CCCC1 | 120 | 123 | 123 | 118 | 116 | 102 | 124 | 113 | 91 | 80.7 | 81.4 |  |  |  |  |  |  |  |  |  |  |  |  |  |  |  |  |  |  |  |  |  | 
4 | COC/1=C/[C@@H]2[C@@H]3CC4=C(C(=C(OC)C=C4)O)[C@]2(CCN3C)CC1=O | 116 | 121 | 130 | 122 | 133 | 139 | 135 | 119 | 128 | 115 | 129 |  |  |  |  |  |  |  |  |  |  |  | 106 | 128 | 121 | 116 | 135 | 139 | 146 | 127 | 122 | 137 | 125
5 | CC[C@H](NC(C)C)[C@H](O)c1ccc(O)c2[nH]c(=O)ccc12 | 75.6 | 90.5 | 101 | 92.8 | 89.3 | 100 | 94.6 | 98.1 | 98.5 | 98.8 | 68.4 | 89.2 | 112 | 96.9 | 107 | 109 | 98.1 | 108 | 100 | 104 | 106 | 79.3 | 100 | 87.5 | 98 | 109 | 119 | 109 | 125 | 105 | 113 | 98.9 | 85.5
6 | CCOc1cc(/C=C2/C(=O)N(c3ccccc3)N=C2C)cc(Cl)c1OCC(=O)OC | 69.2 | 85.9 | 84 | 82.7 | 81 | 90 | 85.9 | 89.5 | 75.7 | 83.6 | 48.4 | 86.2 | 95.7 | 85.2 | 91.1 | 82 | 107 | 95.6 | 95.8 | 90.9 | 71.9 | 58.6 | 80 | 74.3 | 95 | 90 | 64.4 | 90.6 | 81.5 | 86.3 | 85.8 | 65.9 | 59

From the supplement of paper PMC11451515
